# Test results published in the OPERA property sets (Mansouri et al. 2018).
# Details: not given
row,Compound,logP
1,Clc1ccc(Oc2ccccc2)cc1,4.7
2,Clc1ccc(Oc2ccc(Cl)c(Cl)c2)c(Cl)c1,6.13
3,Clc1ccc(Cl)c(Oc2ccc(Cl)c(Cl)c2)c1,6.11
4,Clc1ccc(Oc2ccc(Cl)cc2)cc1,5.25
5,Clc1ccc(Oc2cc(Cl)c(Cl)cc2Cl)c(Cl)c1,6.38
6,Clc1ccc(Cl)c(Oc2ccccc2)c1Cl,5.35
7,Clc1ccc(Oc2c(Cl)cccc2Cl)c(Cl)c1Cl,6.11
8,Clc1c(Cl)c(Cl)c(Oc2ccccc2)c(Cl)c1Cl,6.37
9,Clc1cc(Oc2cc(Cl)c(Cl)c(Cl)c2Cl)cc(Cl)c1Cl,7.55
10,Clc1ccc(Oc2c(Cl)ccc(Cl)c2Cl)cc1Cl,6.31
11,Clc1ccc(Oc2ccccc2)c(Cl)c1,4.93
12,Clc1ccccc1Oc1ccc(Cl)c(Cl)c1Cl,5.72
13,Clc1ccc(Oc2ccc(Cl)c(Cl)c2)cc1Cl,6.36
14,Clc1cccc(Cl)c1Oc1ccccc1,4.64
15,Clc1ccc(Oc2cc(Cl)c(Cl)c(Cl)c2)c(Cl)c1,6.63
16,Clc1ccc(Oc2c(Cl)c(Cl)c(Cl)c(Cl)c2Cl)cc1,6.95
17,Clc1ccc(Oc2c(Cl)ccc(Cl)c2Cl)cc1,5.64
18,Clc1cc(Oc2ccc(Cl)c(Cl)c2Cl)cc(Cl)c1Cl,6.99
19,Clc1ccc(Oc2cc(Cl)c(Cl)c(Cl)c2Cl)cc1Cl,7.07
20,Clc1ccc(Oc2ccc(Cl)c(Cl)c2Cl)cc1,6.14
21,Clc1ccc(Oc2c(Cl)c(Cl)cc(Cl)c2Cl)c(Cl)c1Cl,7.14
22,Clc1ccc(Oc2ccccc2Cl)cc1,5.03

row,Compound,logP
1,Clc1ccc(Oc2ccccc2)c(Cl)c1Cl,5.55
2,Clc1ccc(Oc2cc(Cl)c(Cl)c(Cl)c2Cl)cc1,6.61
3,Clc1ccc(Oc2cc(Cl)ccc2Cl)c(Cl)c1,5.78
4,Clc1ccc(Oc2ccccc2Cl)cc1Cl,5.5
5,Clc1ccc(Oc2ccccc2Cl)c(Cl)c1,4.96
6,Clc1cc(Cl)cc(Oc2ccc(Cl)c(Cl)c2)c1,6.22
7,Clc1ccc(Oc2c(Cl)cc(Cl)cc2Cl)cc1,5.92
8,Clc1ccc(Oc2c(Cl)cccc2Cl)cc1,5.3
9,Clc1cccc(Oc2ccc(Cl)c(Cl)c2Cl)c1,6.07
10,Clc1cc(Cl)c(Cl)c(Oc2cc(Cl)c(Cl)cc2Cl)c1,6.65
11,Clc1cccc(Oc2ccccc2)c1Cl,5
12,Clc1ccc(Cl)c(Oc2ccc(Cl)c(Cl)c2Cl)c1,6.51
13,Clc1cc(Cl)c(Oc2ccc(Cl)c(Cl)c2)c(Cl)c1,6.44
14,Clc1ccc(Oc2cc(Cl)c(Cl)c(Cl)c2)cc1,6.3
15,Clc1c(Cl)c(Cl)c(Oc2c(Cl)c(Cl)c(Cl)c(Cl)c2Cl)c(Cl)c1Cl,8.16
16,Clc1ccc(Oc2c(Cl)cc(Cl)c(Cl)c2Cl)cc1,6.47
17,Clc1ccc(Oc2cc(Cl)c(Cl)c(Cl)c2Cl)c(Cl)c1,6.72
18,Clc1cc(Oc2c(Cl)ccc(Cl)c2Cl)cc(Cl)c1Cl,6.65
19,Clc1cc(Cl)c(Oc2ccccc2)c(Cl)c1,5.32
20,Clc1cc(Cl)cc(Oc2ccc(Cl)c(Cl)c2Cl)c1,6.58
21,Clc1cc(Cl)c(Oc2c(Cl)ccc(Cl)c2Cl)cc1Cl,6.47

# Results, then the compound that gave them:
row,logP,Compound
1,6.72,Clc1cc(Cl)c(Oc2cc(Cl)c(Cl)cc2Cl)cc1Cl
2,7.11,Clc1cc(Cl)c(Oc2cc(Cl)c(Cl)c(Cl)c2)cc1Cl
3,5.63,Clc1ccc(Oc2cccc(Cl)c2Cl)cc1
4,5.88,Clc1ccc(Oc2cccc(Cl)c2Cl)c(Cl)c1
5,5.77,Clc1ccc(Oc2cc(Cl)cc(Cl)c2)cc1
6,6.11,Clc1ccc(Oc2c(Cl)cc(Cl)cc2Cl)c(Cl)c1
7,5.65,Clc1cccc(Oc2ccc(Cl)cc2Cl)c1
8,5.99,Clc1ccc(Oc2cc(Cl)c(Cl)cc2Cl)cc1
9,7.31,Clc1ccc(Oc2c(Cl)c(Cl)c(Cl)c(Cl)c2Cl)c(Cl)c1
10,7.13,Clc1cc(Cl)c(Oc2c(Cl)c(Cl)cc(Cl)c2Cl)cc1Cl
11,6.22,Clc1cc(Cl)c(Oc2cccc(Cl)c2Cl)cc1Cl
12,4.45,Clc1ccccc1Oc1ccccc1
13,6.52,Clc1cc(Cl)c(Cl)c(Oc2ccc(Cl)c(Cl)c2)c1
14,7.01,Clc1cc(Cl)c(Oc2ccc(Cl)c(Cl)c2Cl)cc1Cl
15,7.78,Clc1cc(Oc2cc(Cl)c(Cl)c(Cl)c2Cl)c(Cl)c(Cl)c1Cl
16,7.46,Clc1cc(Cl)c(Oc2cc(Cl)c(Cl)c(Cl)c2Cl)cc1Cl
17,5.74,Clc1cccc(Oc2ccc(Cl)c(Cl)c2)c1
18,6.84,Clc1ccc(Oc2c(Cl)cc(Cl)c(Cl)c2Cl)c(Cl)c1
19,6.83,Clc1ccc(Oc2cc(Cl)c(Cl)c(Cl)c2)cc1Cl
20,6.3,Clc1cccc(Oc2ccc(Cl)c(Cl)c2Cl)c1Cl

row,logP,Compound
1,5.62,Clc1cc(Cl)c(Cl)c(Oc2ccccc2)c1
2,6.01,Clc1ccc(Oc2cc(Cl)cc(Cl)c2Cl)cc1
3,6.78,Clc1ccc(Oc2c(Cl)c(Cl)cc(Cl)c2Cl)cc1Cl
4,5.88,Clc1ccc(Oc2ccc(Cl)c(Cl)c2)cc1
5,5.53,Clc1ccc(Oc2ccc(Cl)cc2Cl)cc1
6,7.63,Clc1cc(Oc2c(Cl)c(Cl)cc(Cl)c2Cl)c(Cl)c(Cl)c1Cl
7,6.6,Clc1ccc(Oc2cc(Cl)c(Cl)cc2Cl)cc1Cl
8,6.49,Clc1cc(Cl)c(Oc2cc(Cl)c(Cl)cc2Cl)c(Cl)c1
9,8.07,Clc1cc(Oc2c(Cl)c(Cl)c(Cl)c(Cl)c2Cl)c(Cl)c(Cl)c1Cl
10,6.98,Clc1cc(Oc2c(Cl)ccc(Cl)c2Cl)c(Cl)c(Cl)c1Cl
11,6.06,Clc1ccc(Oc2c(Cl)ccc(Cl)c2Cl)c(Cl)c1
12,5.88,Clc1cc(Cl)c(Oc2ccccc2)c(Cl)c1Cl
13,4.99,Clc1ccc(Oc2ccccc2)cc1Cl
14,5.99,Clc1ccc(Oc2cccc(Cl)c2Cl)cc1Cl
15,6.51,Clc1ccc(Oc2ccc(Cl)c(Cl)c2Cl)cc1Cl
16,5.98,Clc1cc(Cl)c(Oc2c(Cl)cccc2Cl)cc1Cl
17,6.28,Clc1ccc(Oc2ccc(Cl)c(Cl)c2Cl)c(Cl)c1
18,6.47,Clc1ccc(Oc2c(Cl)ccc(Cl)c2Cl)c(Cl)c1Cl
19,5.97,Clc1cc(Cl)c(Oc2ccccc2Cl)cc1Cl
20,5.7,Clc1cc(Oc2ccccc2)cc(Cl)c1Cl

row,logP,Compound
1,4.75,Clc1cccc(Oc2ccccc2)c1
2,5.13,Clc1ccc(Cl)c(Oc2ccccc2)c1
3,5.13,Clc1ccc(Oc2cccc(Cl)c2)cc1
4,5.66,Clc1ccc(Oc2cc(Cl)ccc2Cl)cc1
5,6.82,Clc1ccc(Oc2ccc(Cl)c(Cl)c2Cl)c(Cl)c1Cl
6,7.01,Clc1cc(Cl)c(Cl)c(Oc2cc(Cl)c(Cl)c(Cl)c2)c1
7,7.84,Clc1ccc(Oc2c(Cl)c(Cl)c(Cl)c(Cl)c2Cl)c(Cl)c1Cl
8,6.41,Clc1ccc(Oc2c(Cl)c(Cl)cc(Cl)c2Cl)cc1
9,5.95,Clc1ccc(Oc2ccc(Cl)cc2Cl)c(Cl)c1
10,5.21,Clc1cc(Cl)cc(Oc2ccccc2)c1
11,5.82,Clc1cc(Cl)c(Cl)c(Oc2ccccc2)c1Cl
12,6.13,Clc1cc(Cl)cc(Oc2ccc(Cl)cc2Cl)c1
13,6.22,Clc1ccc(Cl)c(Oc2cc(Cl)c(Cl)cc2Cl)c1
14,7.81,Clc1cc(Cl)c(Oc2c(Cl)c(Cl)c(Cl)c(Cl)c2Cl)cc1Cl
15,5.7,Clc1ccc(Oc2c(Cl)cccc2Cl)cc1Cl
16,7.28,Clc1ccc(Oc2cc(Cl)c(Cl)c(Cl)c2Cl)c(Cl)c1Cl
17,7.31,Clc1ccc(Oc2c(Cl)c(Cl)c(Cl)c(Cl)c2Cl)cc1Cl
18,6.54,Clc1ccc(Oc2cc(Cl)cc(Cl)c2Cl)c(Cl)c1
19,6.66,Clc1cc(Cl)cc(Oc2cc(Cl)c(Cl)cc2Cl)c1
20,6.14,Clc1cccc(Oc2cc(Cl)c(Cl)cc2Cl)c1

# Same assay, conditions: 25 °C
row,Compound,solubility
1,Clc1ccc(Oc2ccccc2)c(Cl)c1,23.4 µM
2,Clc1cccc(Cl)c1Oc1ccccc1,8.7 µM
3,Clc1ccc(Oc2ccccc2Cl)cc1,3.02 µM
4,Clc1ccc(Oc2ccccc2Cl)cc1Cl,6.32 µM
5,Clc1ccc(Oc2ccccc2Cl)c(Cl)c1,11.2 µM
6,Clc1ccc(Oc2c(Cl)cccc2Cl)cc1,1.23 µM

# The remaining lines, values ahead:
row,solubility,Compound
1,4.9 µM,Clc1ccc(Oc2cccc(Cl)c2Cl)cc1
2,3.02 µM,Clc1ccc(Oc2cc(Cl)cc(Cl)c2)cc1
3,3.62 µM,Clc1cccc(Oc2ccc(Cl)cc2Cl)c1
4,16.6 µM,Clc1ccccc1Oc1ccccc1
5,3.66 µM,Clc1cccc(Oc2ccc(Cl)c(Cl)c2)c1
6,6.47 µM,Clc1cc(Cl)c(Cl)c(Oc2ccccc2)c1
7,2.19 µM,Clc1ccc(Oc2ccc(Cl)c(Cl)c2)cc1
8,0.603 µM,Clc1ccc(Oc2ccc(Cl)cc2Cl)cc1
9,19 µM,Clc1ccc(Oc2ccccc2)cc1Cl
10,61.6 µM,Clc1cccc(Oc2ccccc2)c1
11,10.7 µM,Clc1ccc(Cl)c(Oc2ccccc2)c1
12,17 µM,Clc1ccc(Oc2cccc(Cl)c2)cc1
13,3.63 µM,Clc1ccc(Oc2cc(Cl)ccc2Cl)cc1
14,8.7 µM,Clc1cc(Cl)cc(Oc2ccccc2)c1
